Experimental data taken from US20110009379A1, “INDOLINONE COMPOUND” (ASTELLAS PHARMA INC., priority 2008, published 2011).

Assays:
human TRPA1 = molecular target: T1, human TRPA1 (Homo sapiens, UniProt O75762, K186N/R3C/R58T); test: Measurement of TRPA1 activation activity (intracellular calcium, FLIPR, HEK293 cells stably expressing human TRPA1); type: cell-based; details: change of intracellular calcium concentration
T1 construct: expressed in transfected cells; pcDNA3.1(+) vector)
Outline: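 HEK293 cells stably expressing cloned human TRPA1 (G418-selected) were loaded with Fluo4-AM for 1 h in HBSS/HEPES pH 7.4 buffer containing probenecid. Intracellular calcium change after compound addition was recorded by FLIPR. EC50 values were calculated from these responses.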

Cytochrome P450(2D6) = Cytochrome P450(2D6) (Homo sapiens, UniProt P10635); test: Cytochrome P450(2D6) enzyme inhibition test; type: in vitro ADME; details: CYP2D6, fluorescent substrate 1.5 μmol/L, 37° C., 20 minutes
Outline: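 CYP2D6 (2.5×10^-8 M) incubated 20 min at 37 °C with 1.5 μmol/L AMMC substrate and compound (3.1×10^-7 to 2×10^-5 M) in pH 7.4 phosphate buffer with NADPH-regenerating system. Stopped with Tris/acetonitrile, fluorescence read at ex 390/em 460 nm, and IC50 taken at 50% inhibition.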

Cytochrome P450(2D6), sequence (P10635 whole entry): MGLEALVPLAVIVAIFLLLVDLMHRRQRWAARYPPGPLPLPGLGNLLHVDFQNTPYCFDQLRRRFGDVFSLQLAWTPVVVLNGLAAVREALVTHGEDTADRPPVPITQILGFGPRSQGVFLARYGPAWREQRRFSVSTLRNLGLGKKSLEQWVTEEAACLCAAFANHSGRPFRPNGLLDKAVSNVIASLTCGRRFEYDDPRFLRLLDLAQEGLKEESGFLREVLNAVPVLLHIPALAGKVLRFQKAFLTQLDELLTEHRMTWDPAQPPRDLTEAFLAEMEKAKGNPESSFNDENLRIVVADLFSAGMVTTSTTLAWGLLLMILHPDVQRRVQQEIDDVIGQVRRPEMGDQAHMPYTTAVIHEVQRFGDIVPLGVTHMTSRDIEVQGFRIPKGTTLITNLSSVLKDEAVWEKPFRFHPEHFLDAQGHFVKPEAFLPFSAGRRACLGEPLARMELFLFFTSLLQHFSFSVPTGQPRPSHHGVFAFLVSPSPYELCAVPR
T1 sequence (O75762 whole entry R3C/R58T/K186N): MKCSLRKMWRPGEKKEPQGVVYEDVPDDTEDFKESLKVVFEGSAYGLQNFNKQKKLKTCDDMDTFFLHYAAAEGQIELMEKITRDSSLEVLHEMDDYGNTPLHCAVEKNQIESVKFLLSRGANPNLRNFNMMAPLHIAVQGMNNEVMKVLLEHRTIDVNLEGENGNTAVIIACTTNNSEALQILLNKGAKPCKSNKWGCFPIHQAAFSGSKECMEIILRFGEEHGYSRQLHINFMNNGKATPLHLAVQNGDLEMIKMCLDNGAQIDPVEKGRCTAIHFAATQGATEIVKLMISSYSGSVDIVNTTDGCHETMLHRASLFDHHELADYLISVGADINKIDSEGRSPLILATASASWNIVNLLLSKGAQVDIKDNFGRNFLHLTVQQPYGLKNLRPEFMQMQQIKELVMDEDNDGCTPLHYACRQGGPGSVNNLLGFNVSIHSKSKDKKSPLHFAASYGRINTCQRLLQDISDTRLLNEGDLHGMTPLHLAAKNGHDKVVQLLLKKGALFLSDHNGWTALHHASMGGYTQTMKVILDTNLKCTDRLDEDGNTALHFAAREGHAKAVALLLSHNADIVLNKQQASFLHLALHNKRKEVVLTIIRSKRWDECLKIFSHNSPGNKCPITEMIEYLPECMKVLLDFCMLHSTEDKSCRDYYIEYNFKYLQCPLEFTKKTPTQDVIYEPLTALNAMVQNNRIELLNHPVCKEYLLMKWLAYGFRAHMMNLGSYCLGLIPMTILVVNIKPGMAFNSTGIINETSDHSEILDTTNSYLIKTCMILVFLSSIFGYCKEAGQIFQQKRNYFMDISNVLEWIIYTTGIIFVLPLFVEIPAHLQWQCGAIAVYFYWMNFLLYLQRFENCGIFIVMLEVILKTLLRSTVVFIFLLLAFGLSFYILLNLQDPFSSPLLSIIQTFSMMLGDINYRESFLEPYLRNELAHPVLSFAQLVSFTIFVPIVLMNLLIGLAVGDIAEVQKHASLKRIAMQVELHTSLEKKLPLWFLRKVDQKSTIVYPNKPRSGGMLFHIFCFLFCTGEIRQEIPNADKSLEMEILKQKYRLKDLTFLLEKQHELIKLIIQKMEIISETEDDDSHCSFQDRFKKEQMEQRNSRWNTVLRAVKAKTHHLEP

EC50 (human TRPA1): 510 nM
IC50 (Cytochrome P450(2D6)): > 25 µM
SMILES: O=C(O)/C=C1/C(=O)N(CC2CCCC2)c2c(F)cccc21 [Example 28, (2E)-[1-(cyclopentylmethyl)-7-fluoro-2-oxo-1,2-dihydro-3H-indol-3-ylidene]acetic acid]
